Peptide text beside a SMILES is read from it.
What was measured:
APEX2-Gal8 = APEX2-Gal8 proximity biotinylation LC/MS/MS proteomic analysis in HEK293T cells; type: cell-based; conditions: 100 μM GPN 1 h vs full medium
Method: HEK293T cells transfected with pJJiaDEST-APEX2 or pJJiaDEST-APEX2-Gal8 were incubated with 100 μM GPN (Cayman Chemicals) in full medium for 1 h (confluence of cells remained at 70-80%). Cells were next incubated in 500 μM biotin-phenol (AdipoGen) in full medium for the last 30 min of GPN incubation. A 1 min pulse with 1 mM H2O2 at room temperature was stopped with quenching buffer (10 mM sodium ascorbate, 10 mM sodium azide and 5 mM Trolox in Dulbecco's Phosphate Buffered Saline (DPBS)). All samples were washed twice with quenching buffer, and twice with DPBS.
For LC-MS/MS analysis, cell pellets were lysed in 500 μL ice-cold lysis buffer (6 M urea, 0.3 M Nacl, 1 mM EDTA, 1 mM EGTA, 10 mM sodium ascorbate, 10 mM sodium azide, 5 mM Trolox, 1% glycerol and 25 mm Tris/HCl [PH 7.5]) for 30 min by gentle pipetting. Lysates were clarified by centrifugation and protein concentrations determined as above. Streptavidin-coated magnetic beads (Pierce) were washed with lysis buffer. 3 mg of each sample was mixed with 100 μL of streptavidin bead. The suspensions were gently rotated at 4° C. for overnight to bind biotinylated proteins. The flowthrough after enrichment was removed and the beads were washed in sequence with 1 mL IP buffer (150 mM NaCl, 10 mM Tris-HCl pH8.0, 1 mM EDTA, 1 mM EGTA, 1% Triton X-100) twice; 1 mL 1M KCl; 1 mL of 50 mM Na2CO3; 1 mL 2M Urea in 20 mM 1Tris HCl pH8; 1 mL IP buffer. Biotinylated proteins were eluted, 5-10% of the sample processed for Western Blot and 90-95% of the sample processed for mass spectrometry.
Digested peptides were analyzed by LC-MS/MS on a Thermo Scientific Q Exactive Plus Orbitrap Mass spectrometer in conjunction Proxeon Easy-nLC II HPLC (Thermo Scientific) and Proxeon nanospray source. […]
Tandem mass spectra were extracted by Proteome Discoverer version 2.2. […] All MS/MS samples were analyzed using Sequest-HT (XCorr Only)(Thermo Fisher Scientific, San Jose, Calif., USA; in Proteome Discoverer 2.2.0.388). […] Precursor intensity was determined using Proteome Discoverer 2.2 using the Minor Feature detector with the default options. […]

mTOR and RagA = experiment: Co-IP of FLAG-tagged galectins with endogenous mTOR or RagA in HEK293T cells; type: binding; conditions: HEK293T overexpressing FLAG-tagged galectins
Method: (A) Analysis of the puncta formation of galectins in response to GPN. HeLa cells overexpressing YFP-fused with the indicated galectins were treated with 100 μM GPN or without (Ctrl) in full medium for 1 h and galectin puncta were quantified by HC. […] White masks, algorithm defined cell boundaries (primary objects); green masks, computer-identified galectins puncta (target objects). Data, means±SEM, n≥3 independent experiments (500 primary objects counted per well; ≥5 wells/sample per each experiment); *p<0.05, **p<0.01, † p≥0.05, ANOVA. (B) Immunoprecipitation analysis of the interactions between galectins and mTOR or RagA GTPase. HEK293T cells overexpressing FLAG-tagged galectins were subjected to anti-FLAG immunoprecipitation followed by immunoblotting for endogenous mTOR or RagA. (C) Immunoprecipitation analysis of interactions between Gal8 and mTOR protein complexes in response to GPN treatment. THP-1 cells not treated or treated with 100 μM GPN in full medium for 1 h were subjected to immunoprecipitation with anti-Gal8 antibody, followed by immunoblotting for endogenous RagA, p14, mTOR or Raptor. […] Biotinylated proteins from HEK293T cell expressing APEX2-vector or APEX2-Gal8, after GPN and biotin phenol (BP) treatment were affinity-enriched by binding to streptavidin-beads, and samples were analyzed by immunoblotting analysis for endogenous RagA, p14, mTOR or Raptor. […]

Row | Compound | decrease in spectral counts of mTOR proximal to APEX2-Gal8 (APEX2-Gal8) [fold] | increase in MS signal intensity of peptide precursor ions of LAMTOR1/p18, SLC38A9 and RagA/B (APEX2-Gal8) [fold] | increase in spectral counts of SLC38A9 and RagA/B proximal to APEX2-Gal8 (APEX2-Gal8) [fold] | co-IP with mTOR and RagA (mTOR and RagA)
1 | NCC(=O)N[C@@H](Cc1ccccc1)C(=O)Nc1ccc2ccccc2c1 [GPN, glycyl-L-phenylalanine 2-naphththylamide] (HELM PEPTIDE1{G.F.[c1ccc2cc(N[*:1])ccc2c1]}$$$$V2.0) | > 100 | > 100 | > 100 | –
2 | Gal8: protein of the galectin family encoded by the gene LGALS8; beta-galactoside-binding lectin | – | – | – | found in co-IPs
